Assay results as given in patent US20250361230A1, “LATS Inhibitors and Uses Thereof” (The USA, as Represented by the Secretary, Dept. of Heath …, priority 2022, published 2025).
pIC50: −log10 of the molar value. Read-outs that look alike come from different tables or passages of the source.

Assays:
Type in all cases: biochemical
LATS1 = target: T1, LATS1 (Homo sapiens, UniProt O95835); experiment: RBC HotSpot kinase assay (33P-ATP, P81 filter-binding), LATS1; settings: read-out: LATS1 IC50
T1 sequence (O95835 1-1130): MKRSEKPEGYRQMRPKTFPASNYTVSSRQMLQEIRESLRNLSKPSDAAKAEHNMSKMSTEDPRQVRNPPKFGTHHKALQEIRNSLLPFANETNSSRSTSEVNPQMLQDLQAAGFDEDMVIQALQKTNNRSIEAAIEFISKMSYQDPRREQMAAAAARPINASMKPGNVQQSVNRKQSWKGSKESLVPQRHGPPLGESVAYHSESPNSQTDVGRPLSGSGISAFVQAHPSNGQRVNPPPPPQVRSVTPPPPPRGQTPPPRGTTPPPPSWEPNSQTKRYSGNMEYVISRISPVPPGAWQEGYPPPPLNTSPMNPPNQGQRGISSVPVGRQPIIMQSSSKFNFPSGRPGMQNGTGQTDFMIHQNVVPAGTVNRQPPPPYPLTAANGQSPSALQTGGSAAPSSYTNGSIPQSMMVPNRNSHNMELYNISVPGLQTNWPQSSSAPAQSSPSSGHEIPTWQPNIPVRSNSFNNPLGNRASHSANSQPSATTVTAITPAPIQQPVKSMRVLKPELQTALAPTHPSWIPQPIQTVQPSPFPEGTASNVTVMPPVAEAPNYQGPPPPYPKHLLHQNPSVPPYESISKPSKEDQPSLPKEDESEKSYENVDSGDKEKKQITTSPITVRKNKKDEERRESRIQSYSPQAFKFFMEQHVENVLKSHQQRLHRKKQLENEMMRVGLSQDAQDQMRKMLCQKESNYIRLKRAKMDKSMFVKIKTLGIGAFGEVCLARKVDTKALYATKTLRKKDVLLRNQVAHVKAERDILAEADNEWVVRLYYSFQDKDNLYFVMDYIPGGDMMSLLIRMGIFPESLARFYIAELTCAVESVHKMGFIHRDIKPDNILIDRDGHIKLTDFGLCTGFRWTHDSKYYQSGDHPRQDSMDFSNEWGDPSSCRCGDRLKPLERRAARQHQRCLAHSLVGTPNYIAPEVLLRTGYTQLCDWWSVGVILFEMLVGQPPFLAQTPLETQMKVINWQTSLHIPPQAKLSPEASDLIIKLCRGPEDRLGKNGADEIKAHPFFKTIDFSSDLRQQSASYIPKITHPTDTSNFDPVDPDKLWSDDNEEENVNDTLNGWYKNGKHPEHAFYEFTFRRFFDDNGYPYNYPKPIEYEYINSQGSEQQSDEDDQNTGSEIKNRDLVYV
In short: (§1)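 Substrate in fresh buffer receives cofactors, then kinase, then compound in DMSO for a 20 min room-temperature preincubation. Reactions start with 33P-ATP and run 2 h; phosphorylation is read by P81 filter binding, and IC50 comes from a 10-point curve.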

LATS2 = target: T2, LATS2 (Homo sapiens, UniProt Q9NRM7); experiment: RBC HotSpot kinase assay (33P-ATP, P81 filter-binding), LATS2; settings: read-out: LATS2 IC50
T2 sequence (Q9NRM7 1-1088): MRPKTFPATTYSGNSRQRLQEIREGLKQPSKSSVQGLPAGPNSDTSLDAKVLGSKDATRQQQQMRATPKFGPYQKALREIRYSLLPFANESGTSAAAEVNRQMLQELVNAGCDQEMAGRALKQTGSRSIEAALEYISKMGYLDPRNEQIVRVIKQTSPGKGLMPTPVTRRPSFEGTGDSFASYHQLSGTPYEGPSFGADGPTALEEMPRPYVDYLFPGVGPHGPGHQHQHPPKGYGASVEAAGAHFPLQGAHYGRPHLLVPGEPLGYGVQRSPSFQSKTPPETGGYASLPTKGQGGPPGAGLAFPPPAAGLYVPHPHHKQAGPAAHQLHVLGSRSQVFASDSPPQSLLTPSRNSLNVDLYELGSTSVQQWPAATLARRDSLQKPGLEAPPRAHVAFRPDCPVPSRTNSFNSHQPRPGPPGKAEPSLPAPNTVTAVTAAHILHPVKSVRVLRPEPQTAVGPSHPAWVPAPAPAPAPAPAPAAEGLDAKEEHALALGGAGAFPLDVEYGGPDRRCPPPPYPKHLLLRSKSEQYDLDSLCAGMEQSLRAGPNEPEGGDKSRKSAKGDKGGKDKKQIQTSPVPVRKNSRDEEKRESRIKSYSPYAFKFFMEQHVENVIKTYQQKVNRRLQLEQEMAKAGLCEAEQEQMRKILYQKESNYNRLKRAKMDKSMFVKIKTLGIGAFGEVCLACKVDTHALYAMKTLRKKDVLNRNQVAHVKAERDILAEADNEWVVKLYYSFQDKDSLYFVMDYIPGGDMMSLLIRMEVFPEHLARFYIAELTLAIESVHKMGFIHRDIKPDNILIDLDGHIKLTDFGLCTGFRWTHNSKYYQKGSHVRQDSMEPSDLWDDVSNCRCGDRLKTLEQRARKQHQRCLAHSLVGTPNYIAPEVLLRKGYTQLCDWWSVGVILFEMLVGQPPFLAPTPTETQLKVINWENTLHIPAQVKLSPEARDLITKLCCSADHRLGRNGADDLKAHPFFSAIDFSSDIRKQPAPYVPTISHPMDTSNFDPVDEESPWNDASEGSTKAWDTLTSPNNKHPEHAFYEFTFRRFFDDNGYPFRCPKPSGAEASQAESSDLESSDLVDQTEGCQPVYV
In short: as §1

AKT = AKT (Homo sapiens, UniProt P31749); experiment: RBC HotSpot kinase assay (33P-ATP, P81 filter-binding), AKT; settings: read-out: AKT IC50
Sequence of AKT (P31749 whole entry): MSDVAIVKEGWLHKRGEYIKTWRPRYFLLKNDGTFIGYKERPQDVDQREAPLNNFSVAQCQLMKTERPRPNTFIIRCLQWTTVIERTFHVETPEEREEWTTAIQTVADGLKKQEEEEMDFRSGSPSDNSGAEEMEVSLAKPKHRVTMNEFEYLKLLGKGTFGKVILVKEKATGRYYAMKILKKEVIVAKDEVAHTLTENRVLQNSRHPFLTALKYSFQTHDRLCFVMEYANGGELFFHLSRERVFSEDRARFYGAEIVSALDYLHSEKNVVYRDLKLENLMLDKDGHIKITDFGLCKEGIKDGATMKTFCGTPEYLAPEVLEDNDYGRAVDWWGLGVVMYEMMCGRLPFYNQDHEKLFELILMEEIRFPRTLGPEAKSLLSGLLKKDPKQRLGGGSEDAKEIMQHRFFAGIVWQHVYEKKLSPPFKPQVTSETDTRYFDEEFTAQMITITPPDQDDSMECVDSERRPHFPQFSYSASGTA
In short: as §1

[1] = Table 28, biochemical kinase assay

Row | SMILES | pIC50 (LATS1; [1]) | pIC50 (LATS2; [1]) | pIC50 (AKT; [1]) | pIC50 (LATS1; biochemical kinase inhibition) | pIC50 (LATS2; biochemical kinase inhibition) | pIC50 (AKT; biochemical kinase inhibition)
1 | NCc1ccc(-c2ccnc3[nH]cc(Cl)c23)cc1-c1ccccc1 [Compound 234, (5-(3-chloro-1H-pyrrolo[2,3-b]pyridin-4-yl)-[1,1′-biphenyl]-2-yl)methanamine] | 8.19 | 7.62 | 7.16 | – | – | –
2 | C[C@@H]1CNC[C@H](C)[C@@]1(O)c1ccc(-c2ccnc3[nH]cc(F)c23)cc1C(F)(F)F [Compound 11, (3S,4s,5R)-4-(4-(3-fluoro-1H-pyrrolo[2,3-b]pyridin-4-yl)-2-(trifluoromethyl)phenyl)-3,5-dimethylpiperidin-4-ol] | 7.95 | 7.97 | 6.84 | – | – | –
3 | CN[C@@H](CO)C(=O)N1C[C@@H](C)[C@](O)(c2c(C)cc(-c3ccnc4[nH]cc(C#N)c34)cc2F)[C@@H](C)C1 [Compound 2009, 4-(3-fluoro-4-((3S,4R,5R)-4-hydroxy-3,5-dimethyl-1-(methyl-L-seryl)piperidin-4-yl)-5-methylphenyl)-1H-pyrrolo[2,3-b]pyridine-3-carbonitrile] | – | – | – | 8.32 | 8.60 | 6.61
4 | C[C@@H]1CN(C(=O)C2(N)CC(F)(F)C2)C[C@H](C)C1(O)c1c(F)cc(-c2ccnc3[nH]cc(F)c23)cc1F (stereo partly drawn) [Compound 79, (1-amino-3,3-difluorocyclobutyl) ((3S,5R)-4-(2,6-difluoro-4-(3-fluoro-1H-pyrrolo[2,3-b]pyridin-4-yl)phenyl)-4-hydroxy-3,5-dimethylpiperidin-1-yl)methanone] | 7.89 | 7.53 | 5.29 | – | – | –
5 | OC1(c2ccc(-c3ccnc4[nH]ccc34)cc2)C[C@H]2CC[C@@H](C1)N2 (stereo partly drawn) [Compound 115, (1R,5S)-3-(4-(1H-pyrrolo[2,3-b]pyridin-4-yl)phenyl)-8-azabicyclo[3.2.1]octan-3-ol] | 8.14 | 8.00 | 6.75 | – | – | –
6 | CC(C)c1cc(-c2ccnc3[nH]ccc23)ccc1CN [Compound 233, (2-isopropyl-4-(1H-pyrrolo[2,3-b]pyridin-4-yl)phenyl) methanamine] | 8.25 | 7.45 | 6.55 | – | – | –
7 | NCc1ccc(-c2cc(-c3ccnc4[nH]cc(Br)c34)ccc2C2CCNCC2)cc1 [Compound 151, (5′-(3-bromo-1H-pyrrolo[2,3-b]pyridin-4-yl)-2′-(piperidin-4-yl)-[1,1′-biphenyl]-4-yl)methanamine] | 7.78 | 7.82 | 6.77 | – | – | –
8 | COc1ccc(-c2c[nH]c3nccc(-c4ccc(CN)cc4)c23)cc1 [Compound 239, (4-(3-(4-methoxyphenyl)-1H-pyrrolo[2,3-b]pyridin-4-yl)phenyl) methanamine] | 7.17 | 7.59 | 5.88 | – | – | –
9 | Cc1cc(-c2ccnc3[nH]cc(C)c23)cc(F)c1[C@@]1(O)[C@H](C)CN(C(=O)CN)C[C@@H]1C [Compound 314, 2-amino-1-((3S,4s,5R)-4-(2-fluoro-6-methyl-4-(3-methyl-1H-pyrrolo[2,3-b]pyridin-4-yl)phenyl)-4-hydroxy-3,5-dimethylpiperidin-1-yl)ethan-1-one] | 8.80 | 8.32 | 6.60 | – | – | –
10 | NCc1ccc(-c2cc(-c3ccnc4[nH]cc(F)c34)ccc2C2CCNCC2)cc1 [Compound 149, (5′-(3-fluoro-1H-pyrrolo[2,3-b]pyridin-4-yl)-2′-(piperidin-4-yl)-[1,1′-biphenyl]-4-yl)methanamine] | 8.37 | 9.00 | 7.17 | – | – | –
11 | Cc1cc(-c2ccnc3[nH]cc(C#N)c23)ccc1[C@@]1(O)[C@H](C)CN(C(=O)[C@H](N)CO)C[C@@H]1C [Compound 2016, 4-(4-((3S,4S,5R)-1-(D-seryl)-4-hydroxy-3,5-dimethylpiperidin-4-yl)-3-methylphenyl)-1H-pyrrolo[2,3-b]pyridine-3-carbonitrile] | – | – | – | 8.04 | 8.19 | 7.31
12 | OC1(c2ccc(-c3ccnc4[nH]cc(F)c34)cc2Cl)CCN2CCCC2C1 (stereo not drawn) [Compound 96, 7-(2-chloro-4-(3-fluoro-1H-pyrrolo[2,3-b]pyridin-4-yl)phenyl)octahydroindolizin-7-ol] | 7.77 | 7.75 | 6.11 | – | – | –
13 | COC(=O)C1(c2ccc(-c3ccnc4[nH]cc(F)c34)cc2Cl)CCNCC1 [Compound 198, methyl 4-(2-chloro-4-(3-fluoro-1H-pyrrolo[2,3-b]pyridin-4-yl)phenyl)piperidine-4-carboxylate] | 8.13 | 8.00 | 6.91 | – | – | –
14 | CC(C)(C)OC(=O)N1CCC(O)(c2ccc(-c3ccnc4[nH]ccc34)cc2)CC1 [Compound 141, tert-butyl 4-(4-(1H-pyrrolo[2,3-b]pyridin-4-yl)phenyl)-4-hydroxypiperidine-1-carboxylate] | 6.05 | 6.33 | < 5.00 | – | – | –
15 | Cc1nnc(C2(c3ccc(-c4ccnc5[nH]cc(F)c45)cc3)CCNCC2)o1 [Compound 190, 2-(4-(4-(3-fluoro-1H-pyrrolo[2,3-b]pyridin-4-yl)phenyl)piperidin-4-yl)-5-methyl-1,3,4-oxadiazole] | 7.70 | 7.77 | 7.74 | – | – | –
16 | NCc1ccc(-c2ccnc3[nH]cc(-c4ccccc4F)c23)cc1 [Compound 248, (4-(3-(2-fluorophenyl)-1H-pyrrolo[2,3-b]pyridin-4-yl)phenyl) methanamine] | 7.30 | 8.00 | 5.55 | – | – | –
17 | Cc1nnc(C2(c3ccc(-c4ccnc5[nH]cc(F)c45)cc3)CCN(C(=O)OC(C)(C)C)CC2)o1 [Compound 195, tert-butyl 4-(4-(3-fluoro-1H-pyrrolo[2,3-b]pyridin-4-yl)phenyl)-4-(5-methyl-1,3,4-oxadiazol-2-yl)piperidine-1-carboxylate] | 5.24 | 5.45 | < 5.00 | – | – | –
18 | c1cc(-c2ccc(CN3CCCC3)cc2)c2cc[nH]c2n1 [Compound 277, 4-(4-(pyrrolidin-1-ylmethyl)phenyl)-1H-pyrrolo[2,3-b]pyridine] | 7.20 | 7.00 | 5.66 | – | – | –
19 | OC1(c2c(F)cc(-c3ccnc4[nH]cc(F)c34)cc2F)CC2(CNC2)C1 [Compound 109, 6-(2,6-difluoro-4-(3-fluoro-1H-pyrrolo[2,3-b]pyridin-4-yl)phenyl)-2-azaspiro[3.3]heptan-6-ol] | 7.34 | 7.21 | 5.53 | – | – | –
